Measurements published in US10780074B2, “Compounds and uses thereof” (Sunovion Pharmaceuticals Inc., priority 2017, dated 2020).
Structures can show the parent of a compound that is named as a salt.

Tested on: behaviors of compound-treated mice
Test: Neuropharmacological Assay (SmartCube)
Type: in vivo
Conditions: for minimal effective dose: Mus musculus, ip, 0.25 h, dose having 50% or more total activity in SmartCube, i.p., read-out: MED (minimal effective dose); for AD: ADHD (probability that activity matches class) / AG: analgesic (probability that activity matches class) / AX: anxiolytic (probability that activity matches class) / CE: cognitive enhancer (probability that activity matches class) / DP: anti-depressant (probability that activity matches class) / MS: mood stabilizer (probability that activity matches class) / PS: anti-psychotic (probability that activity matches class) / SD: sedative hypnotic (probability that activity matches class) / UN: uncharacterized CNS activity (probability that activity matches class): i.p. 15 min before behavioral test, most efficacious dose(s) of 3 doses
Excerpt: Neuropharmacological Assay (SmartCube™)
Neurosci. 2011 Sep. 9; 5:103 (doi: 10.3389/fnins.2011.00103) (“Roberds”). As reported in Roberds, because psychiatric diseases generally result from disorders of cell-cell communication or circuitry, intact systems are useful in detecting improvement in disease-relevant endpoints. These endpoints are typically behavioral in nature, often requiring human observation and interpretation. To facilitate testing of multiple compounds for behavioral effects relevant to psychiatric disease, PsychoGenics, Inc. (Tarrytown, N.Y., “PGI”) developed SmartCube™, an automated system in which behaviors of compound-treated mice are captured by digital video and analyzed with computer algorithms. (D. Brunner et al., Drug Discov. Today 2002, 7:S107-S112). PGI Analytical Systems uses data from SmartCube™ to compare the behavioral signature of a test compound to a database of behavioral signatures obtained using a large set of diverse reference compounds. (The composition of the database as well as validation of the method is further described in Roberds). In this way, the neuropharmacological effects of a test compound can be predicted by similarity to major classes of compounds, such as antipsychotics, anxiolytics and antidepressants.
The SmartCube™ system produces an activity signature indicating the probability that the activity of the test compound at the administered dose matches a given class of neuropharmacological agents. (See, e.g., Roberds, FIGS. 2 and 3). The test compound is simultaneously compared against multiple classes of agents; thus, a separate probability is generated for each behavioral effect measured (e.g., anxiolytic activity, analgesic activity, etc.). In the table below, these probabilities are reported for each behavioral effect measured as follows:
Provided compounds were dissolved in a mixture of Pharmasolve™ (N-methyl-2-pyrrolidone), polyethylene glycol and propylene glycol, and were injected i.p. 15 min. before the behavioral test. For each compound, injections were administered at 3 different doses. For each behavioral effect measured, results for the most efficacious dose(s) are presented. In the table below, DP: anti-depressant; AX: anxiolytic; SD: sedative hypnotic; PS: anti-psychotic; MS: mood stabilizer; AD: ADHD; CE: cognitive enhancer; AG: analgesic; UN: uncharacterized CNS activity.
The potency of many of the compounds in the table was also determined in the SmartCube™ system. Test compounds were routinely examined at dose levels of 0.3, 1, 3 10 and 30 mg per kg (mpk), although the dose range was increased or decreased if necessary to obtain a full dose response curve. A compound's minimal effective dose (MED) is a measure of the compounds potency. The MED was defined as the dose (in mpk) having 50% or more total activity in SmartCube.

Q: What does the source list for `NC[C@H]1OCCc2c(-c3ccncn3)cccc21` (single isomer, unassigned) [Compound 75, hydrochloride salt]?
A: minimal effective dose: 3 to 10 mg/kg; AD: ADHD (probability that activity matches class): + (LOQ ≤ + <5%); AG: analgesic (probability that activity matches class): + (LOQ ≤ + <5%); AX: anxiolytic (probability that activity matches class): ++ (5% ≤ ++ <25%); CE: cognitive enhancer (probability that activity matches class): + (LOQ ≤ + <5%); DP: anti-depressant (probability that activity matches class): ++++ (50% ≤ ++++); MS: mood stabilizer (probability that activity matches class): + (LOQ ≤ + <5%); PS: anti-psychotic (probability that activity matches class): + (LOQ ≤ + <5%); SD: sedative hypnotic (probability that activity matches class): + (LOQ ≤ + <5%); UN: uncharacterized CNS activity (probability that activity matches class): ++ (5% ≤ ++ <25%)

Q: Which results are given for `NC[C@@H]1OCCc2ccc(-c3ccncc3)cc21` [Compound 47, (R)-(7-(pyridin-4-yl)isochroman-1-yl)methanamine hydrochloride]?
A: minimal effective dose: 3 to 10 mg/kg; AD: ADHD (probability that activity matches class): + (LOQ ≤ + <5%); AG: analgesic (probability that activity matches class): + (LOQ ≤ + <5%); AX: anxiolytic (probability that activity matches class): ++ (5% ≤ ++ <25%); CE: cognitive enhancer (probability that activity matches class): + (LOQ ≤ + <5%); DP: anti-depressant (probability that activity matches class): ++++ (50% ≤ ++++); MS: mood stabilizer (probability that activity matches class): + (LOQ ≤ + <5%); PS: anti-psychotic (probability that activity matches class): ++ (5% ≤ ++ <25%); SD: sedative hypnotic (probability that activity matches class): + (LOQ ≤ + <5%); UN: uncharacterized CNS activity (probability that activity matches class): + (LOQ ≤ + <5%)

Q: `CNCC1OCCc2c(-c3cnccn3)cccc21` (centres unmarked) [Compound 56, N-Methyl-1-(5-(pyrazin-2-yl)isochroman-1-yl)methanamine hydrochloride salt] was tested. Which minimal effective dose did it give?
A: Its minimal effective dose is 3 to 10 mg/kg.

Q: And the “AD: ADHD (probability that activity matches class)” value?
A: Its value is “++ (5% ≤ ++ <25%)”.

Q: And the “AG: analgesic (probability that activity matches class)” value?
A: Its value is “+ (LOQ ≤ + <5%)”.

Q: And the “AX: anxiolytic (probability that activity matches class)” value?
A: Its value is “++ (5% ≤ ++ <25%)”.

Q: What about the “CE: cognitive enhancer (probability that activity matches class)” value of the same compound?
A: Its value is “+ (LOQ ≤ + <5%)”.

Q: And the “DP: anti-depressant (probability that activity matches class)” value?
A: Its value is “++++ (50% ≤ ++++)”.

Q: What about the “MS: mood stabilizer (probability that activity matches class)” value of the same compound?
A: Its value is “+ (LOQ ≤ + <5%)”.

Q: What about the “PS: anti-psychotic (probability that activity matches class)” value of the same compound?
A: Its value is “+ (LOQ ≤ + <5%)”.

Q: What about the “SD: sedative hypnotic (probability that activity matches class)” value of the same compound?
A: Its value is “+ (LOQ ≤ + <5%)”.

Q: And the “UN: uncharacterized CNS activity (probability that activity matches class)” value?
A: The value was “+ (LOQ ≤ + <5%)”.

Q: What does the source list for `CNC[C@@H]1OCCc2c(-c3ccnnc3)cccc21` (single isomer, unassigned) [Compound 76, hydrochloride salt]?
A: minimal effective dose: 3 to 10 mg/kg; AD: ADHD (probability that activity matches class): + (LOQ ≤ + <5%); AG: analgesic (probability that activity matches class): ++ (5% ≤ ++ <25%); AX: anxiolytic (probability that activity matches class): ++ (5% ≤ ++ <25%); CE: cognitive enhancer (probability that activity matches class): + (LOQ ≤ + <5%); DP: anti-depressant (probability that activity matches class): + (LOQ ≤ + <5%); MS: mood stabilizer (probability that activity matches class): + (LOQ ≤ + <5%); PS: anti-psychotic (probability that activity matches class): + (LOQ ≤ + <5%); SD: sedative hypnotic (probability that activity matches class): + (LOQ ≤ + <5%); UN: uncharacterized CNS activity (probability that activity matches class): + (LOQ ≤ + <5%)

Q: For `CNC[C@@H]1OCCc2ccc(-c3cccnc3)cc21` (single isomer, unassigned) [Compound 3, dihydrochloride], which minimal effective dose is on record?
A: The minimal effective dose was 3 to 10 mg/kg.

Q: And the “AD: ADHD (probability that activity matches class)” value?
A: The value was “+ (LOQ ≤ + <5%)”.

Q: And the “AG: analgesic (probability that activity matches class)” value?
A: Its value is “++ (5% ≤ ++ <25%)”.

Q: And the “AX: anxiolytic (probability that activity matches class)” value?
A: The value was “++ (5% ≤ ++ <25%)”.

Q: And the “CE: cognitive enhancer (probability that activity matches class)” value?
A: Its value is “++ (5% ≤ ++ <25%)”.

Q: And the “DP: anti-depressant (probability that activity matches class)” value?
A: The value was “++ (5% ≤ ++ <25%)”.

Q: And the “MS: mood stabilizer (probability that activity matches class)” value?
A: The value was “++ (5% ≤ ++ <25%)”.

Q: What about the “PS: anti-psychotic (probability that activity matches class)” value of the same compound?
A: The value was “++ (5% ≤ ++ <25%)”.

Q: What about the “SD: sedative hypnotic (probability that activity matches class)” value of the same compound?
A: The value was “+ (LOQ ≤ + <5%)”.

Q: And the “UN: uncharacterized CNS activity (probability that activity matches class)” value?
A: The value was “++ (5% ≤ ++ <25%)”.
